# Measured values as given in patent US9549921B2, “Heterocyclic compounds and methods of use thereof for the treatment of hepatitis C” (priority 2014, dated 2017).
# How the values were obtained:
# HCV replicon genotype 1a = assay: HCV replicon assay, genotype 1a (cell ELISA for NS3/4A); format: cell-based, hepatitis C virus; conditions: Hepatitis C virus, 96 h, read-out: 1a IC50 (nM), HCV genotype 1a replicon cells, 96 hours incubation, NS3/4A ELISA readout, % of DMSO control
# Procedure, shortened: (§1)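 Readout is NS3/4A protein level from an antibody-based cell ELISA, serving as an indirect measure of replicon RNA; IC50 fitted with a four-parameter function relative to DMSO control. Replicon cells, kept under G418 beforehand, were plated with serial compound dilutions minus G418 for 96 hours.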
# HCV replicon genotype 1b = assay: HCV replicon assay, genotype 1b (cell ELISA for NS3/4A); format: cell-based, hepatitis C virus; conditions: Hepatitis C virus, 96 h, read-out: 1b IC50 (nM), HCV genotype 1b replicon cells, 96 hours incubation, NS3/4A ELISA readout, % of DMSO control
# Procedure, shortened: as §1
SMILES,IC50 (HCV replicon genotype 1a),IC50 (HCV replicon genotype 1b)
"CNC(=O)c1c(-c2ccc(F)cc2)oc2cc(N(C)S(C)(=O)=O)c([C@H]3CCCN(C(=O)c4cc5cccc(F)c5o4)C3)cc12 [Example 91, (R)-5-(1-(7-fluorobenzofuran-2-carbonyl)piperidin-3-yl)-2-(4-fluorophenyl)-N-methyl-6-(N-methylmethylsulfonamido)benzofuran-3-carboxamide]",180 nM,62.6 nM
"CNC(=O)c1c(-c2ccc(F)cc2)oc2cc(N(C)S(C)(=O)=O)c([C@H]3CCCN(C(=O)c4nc5ccc(F)cc5[nH]4)C3)cc12 [Example 92, 5-{(3R)-1-[(6-fluoro-1H-benzimidazol-2-yl)carbonyl]piperidin-3-yl}-2-(4-fluorophenyl)-N-methyl-6-[methyl(methylsulfonyl)amino]-1-benzofuran-3-carboxamide]",274 nM,97 nM
"CNC(=O)c1c(-c2ccc(F)cc2)oc2cc(N(C)S(C)(=O)=O)c([C@H]3CCCN(C(=O)c4nc5ccc(F)cc5s4)C3)cc12 [Example 93, 5-{(3R)-1-[(6-fluoro-1,3-benzothiazol-2-yl)carbonyl]piperidin-3-yl}-2-(4-fluorophenyl)-N-methyl-6-[methyl(methylsulfonyl)amino]-1-benzofuran-3-carboxamide]",181 nM,102 nM
"CNC(=O)c1c(-c2ccc(F)cc2)oc2cc(N(C)S(C)(=O)=O)c([C@H]3CCCN(C(=O)[C@@H](NC(=O)OC(C)(C)C)c4ccccc4F)C3)cc12 [Example 94, tert-butyl {(1S)-1-(2-fluorophenyl)-2-[(3R)-3-{2-(4-fluorophenyl)-3-(methylcarbamoyl)-6-[methyl(methylsulfonyl)amino]-1-benzofuran-5-yl}piperidin-1-yl]-2-oxoethyl}carbamate]",300 nM,168 nM
"CNC(=O)c1c(-c2ccc(F)cc2)oc2cc(N(C)S(C)(=O)=O)c([C@H]3CCCN(C(=O)Cc4ccc5nccnc5c4)C3)cc12 [Example 95, 2-(4-fluorophenyl)-N-methyl-6-[methyl(methylsulfonyl)amino]-5-[(3R)-1-(quinoxalin-6-ylacetyl)piperidin-3-yl]-1-benzofuran-3-carboxamide]",176 nM,106 nM
"CNC(=O)c1c(-c2ccc(F)cc2)oc2cc(N(C)S(C)(=O)=O)c([C@H]3CCCN(C(=O)c4nn(C)c(=O)c5ccccc45)C3)cc12 [Example 96, 2-(4-fluorophenyl)-N-methyl-6-[methyl(methylsulfonyl)amino]-5-{(3R)-1-[(3-methyl-4-oxo-3,4-dihydrophthalazin-1-yl)carbonyl]piperidin-3-yl}-1-benzofuran-3-carboxamide]",423 nM,219 nM
"CNC(=O)c1c(-c2ccc(F)cc2)oc2cc(N(C)S(C)(=O)=O)c([C@H]3CCCN(C(=O)c4n[nH]c(=O)c5ccccc45)C3)cc12 [Example 97, 2-(4-fluorophenyl)-N-methyl-6-[methyl(methylsulfonyl)amino]-5-{(3R)-1-[(4-oxo-3,4-dihydrophthalazin-1-yl)carbonyl]piperidin-3-yl}-1-benzofuran-3-carboxamide]",336 nM,470 nM
"CNC(=O)c1c(-c2ccc(F)cc2)oc2cc(N(C)S(C)(=O)=O)c([C@H]3CCCN(C(=O)C(c4ccccc4)N4CCOCC4)C3)cc12 (stereo partly drawn) [Example 98, 2-(4-fluorophenyl)-N-methyl-6-[methyl(methylsulfonyl)amino]-5-{(3R)-1-[morpholin-4-yl(phenyl)acetyl]piperidin-3-yl}-1-benzofuran-3-carboxamide]",241 nM,112 nM
"CNC(=O)c1c(-c2ccc(F)cc2)oc2cc(N(C)S(C)(=O)=O)c([C@H]3CCCN(C(=O)c4n[nH]c5cc(Br)ccc45)C3)cc12 [Example 99, 5-{(3R)-1-[(6-bromo-1H-indazol-3-yl)carbonyl]piperidin-3-yl}-2-(4-fluorophenyl)-N-methyl-6-[methyl(methylsulfonyl)amino]-1-benzofuran-3-carboxamide]",137 nM,66.7 nM
"CNC(=O)c1c(-c2ccc(F)cc2)oc2cc(N(C)S(C)(=O)=O)c([C@H]3CCCN(C(=O)c4nn(CC5CC5)c5ccccc45)C3)cc12 [Example 100, 5-[(3R)-1-{[1-(cyclopropylmethyl)-1H-indazol-3-yl]carbonyl}piperidin-3-yl]-2-(4-fluorophenyl)-N-methyl-6-[methyl(methylsulfonyl)amino]-1-benzofuran-3-carboxamide]",65 nM,20.4 nM
"CNC(=O)c1c(-c2ccc(F)cc2)oc2cc(N(C)S(C)(=O)=O)c([C@H]3CCCN(C(=O)c4cn(C)c5ccccc45)C3)cc12 [Example 101, 2-(4-fluorophenyl)-N-methyl-5-{(3R)-1-[(1-methyl-1H-indol-3-yl)carbonyl]piperidin-3-yl}-6-[methyl(methylsulfonyl)amino]-1-benzofuran-3-carboxamide]",103 nM,55.9 nM
"CNC(=O)c1c(-c2ccc(F)cc2)oc2cc(N(C)S(C)(=O)=O)c([C@H]3CCCN(C(=O)c4c[nH]c5cc(F)ccc45)C3)cc12 [Example 102, 5-{(3R)-1-[(6-fluoro-1H-indol-3-yl)carbonyl]piperidin-3-yl}-2-(4-fluorophenyl)-N-methyl-6-[methyl(methylsulfonyl)amino]-1-benzofuran-3-carboxamide]",345 nM,295 nM
"CNC(=O)c1c(-c2ccc(F)cc2)oc2cc(N(C)S(C)(=O)=O)c([C@H]3CCCN(C(=O)c4cn5c(Br)cccc5n4)C3)cc12 [Example 103, 5-{(3R)-1-[(5-bromoimidazo[1,2-a]pyridin-2-yl)carbonyl]piperidin-3-yl}-2-(4-fluorophenyl)-N-methyl-6-[methyl(methylsulfonyl)amino]-1-benzofuran-3-carboxamide]",212 nM,110 nM
"CNC(=O)c1c(-c2ccc(F)cc2)oc2cc(N(C)S(C)(=O)=O)c([C@H]3CCCN(C(=O)c4cn5cc(Cl)cc(N)c5n4)C3)cc12 [Example 104, 5-{(3R)-1-[(8-amino-6-chloroimidazo[1,2-a]pyridin-2-yl)carbonyl]piperidin-3-yl}-2-(4-fluorophenyl)-N-methyl-6-[methyl(methylsulfonyl)amino]-1-benzofuran-3-carboxamide]",284 nM,136 nM
"CNC(=O)c1c(-c2ccc(F)cc2)oc2cc(N(C)S(C)(=O)=O)c([C@H]3CCCN(C(=O)c4ccn5nncc5c4)C3)cc12 [Example 105, 2-(4-fluorophenyl)-N-methyl-6-[methyl(methylsulfonyl)amino]-5-[(3R)-1-([1,2,3]triazolo[1,5-a]pyridin-5-ylcarbonyl)piperidin-3-yl]-1-benzofuran-3-carboxamide]",347 nM,219 nM
"CNC(=O)c1c(-c2ccc(F)cc2)oc2cc(N(C)S(C)(=O)=O)c([C@H]3CCCN(C(=O)c4cc5ccccn5c4)C3)cc12 [Example 106, 2-(4-fluorophenyl)-5-[(3R)-1-(indolizin-2-ylcarbonyl)piperidin-3-yl]-N-methyl-6-[methyl(methylsulfonyl)amino]-1-benzofuran-3-carboxamide]",123 nM,51.5 nM
"CNC(=O)c1c(-c2ccc(F)cc2)oc2cc(N(C)S(C)(=O)=O)c([C@H]3CCCN(C(=O)c4cn5c(Cl)cccc5n4)C3)cc12 [Example 107, 5-{(3R)-1-[(5-chloroimidazo[1,2-a]pyridin-2-yl)carbonyl]piperidin-3-yl}-2-(4-fluorophenyl)-N-methyl-6-[methyl(methylsulfonyl)amino]-1-benzofuran-3-carboxamide]",389 nM,116 nM
"CNC(=O)c1c(-c2ccc(F)cc2)oc2cc(N(C)S(C)(=O)=O)c([C@H]3CCCN(C(=O)C(c4ccccc4)c4ccccc4)C3)cc12 [Example 108, 5-[(3R)-1-(diphenylacetyl)piperidin-3-yl]-2-(4-fluorophenyl)-N-methyl-6-[methyl(methylsulfonyl)amino]-1-benzofuran-3-carboxamide]",266 nM,53 nM
"CNC(=O)c1c(-c2ccc(F)cc2)oc2cc(N(C)S(C)(=O)=O)c([C@@H]3CCCN(S(=O)(=O)Cc4ccncc4)C3)cc12 [Example 109, 2-(4-fluorophenyl)-N-methyl-6-[methyl(methylsulfonyl)amino]-5-{(3S)-1-[(pyridin-4-ylmethyl)sulfonyl]piperidin-3-yl}-1-benzofuran-3-carboxamide]",104 nM,26.2 nM
"CNC(=O)c1c(-c2ccc(F)cc2)oc2cc(N(C)S(C)(=O)=O)c([C@@H]3CCCN(S(=O)(=O)Cc4cccnc4)C3)cc12 [Example 110, 2-(4-fluorophenyl)-N-methyl-6-[methyl(methylsulfonyl)amino]-5-{(3S)-1-[(pyridin-3-ylmethyl)sulfonyl]piperidin-3-yl}-1-benzofuran-3-carboxamide]",164 nM,38.4 nM
"CNC(=O)c1c(-c2ccc(F)cc2)oc2cc(N(C)S(C)(=O)=O)c([C@@H]3CCCN(S(=O)(=O)c4ccccc4C)C3)cc12 [Example 111, 2-(4-fluorophenyl)-N-methyl-6-[methyl(methylsulfonyl)amino]-5-{(3S)-1-[(2-methylphenyl)sulfonyl]piperidin-3-yl}-1-benzofuran-3-carboxamide]",68.1 nM,17.2 nM
"CNC(=O)c1c(-c2ccc(F)cc2)oc2cc(N(C)S(C)(=O)=O)c([C@@H]3CCCN(S(=O)(=O)c4ccc5ncsc5c4)C3)cc12 [Example 112, 5-[(3S)-1-(1,3-benzothiazol-6-ylsulfonyl)piperidin-3-yl]-2-(4-fluorophenyl)-N-methyl-6-[methyl(methylsulfonyl)amino]-1-benzofuran-3-carboxamide]",25 nM,6.79 nM
